Measurements from US20170095565A1, “CHEMICALLY MODIFIED SMALL MOLECULES” (Nektar Therapeutics, priority 2003, published 2017).
Read-outs that look alike come from different tables or passages of the source. Each block holds one molecule with its values, some of them ahead of it.

How the values were obtained:
[1] = target: T1, recombinant human glucocorticoid receptor (Homo sapiens, UniProt P04150); test: Cell-free glucocorticoid receptor binding assay (fluorescence polarization); settings: for Ki: ± standard error, TA n = 2
T1 construct: purchased PanVera
T1 sequence (P04150 1-777): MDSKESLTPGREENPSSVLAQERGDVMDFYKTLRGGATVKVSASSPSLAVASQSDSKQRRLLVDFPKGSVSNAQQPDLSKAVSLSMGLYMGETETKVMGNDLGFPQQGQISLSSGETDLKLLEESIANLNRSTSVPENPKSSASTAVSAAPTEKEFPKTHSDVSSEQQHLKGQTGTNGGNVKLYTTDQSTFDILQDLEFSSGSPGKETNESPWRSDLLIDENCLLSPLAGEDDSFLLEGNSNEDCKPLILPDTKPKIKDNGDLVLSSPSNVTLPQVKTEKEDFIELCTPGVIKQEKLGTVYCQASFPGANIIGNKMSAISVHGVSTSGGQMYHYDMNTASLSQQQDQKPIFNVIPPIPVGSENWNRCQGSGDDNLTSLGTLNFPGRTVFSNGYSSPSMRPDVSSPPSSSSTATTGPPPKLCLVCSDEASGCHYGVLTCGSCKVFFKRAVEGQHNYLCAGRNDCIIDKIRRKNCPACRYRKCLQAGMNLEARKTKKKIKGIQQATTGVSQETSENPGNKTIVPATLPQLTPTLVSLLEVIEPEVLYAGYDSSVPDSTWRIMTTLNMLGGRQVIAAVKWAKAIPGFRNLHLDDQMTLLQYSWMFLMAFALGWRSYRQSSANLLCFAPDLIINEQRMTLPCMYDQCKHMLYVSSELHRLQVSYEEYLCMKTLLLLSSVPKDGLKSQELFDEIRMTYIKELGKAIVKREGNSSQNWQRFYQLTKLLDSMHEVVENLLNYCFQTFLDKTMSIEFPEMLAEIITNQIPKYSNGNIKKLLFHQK
Text: The assay is based on competitive inhibition binding of a fluorescently labeled high affinity ligand, and generates Ki values that can be compared between the test compounds. […] Thus, as with EC5o values, a higher Ki value reflects a weaker binding affinity.
A commercially available GR binding assay based on fluorescence polarization (FP) was utilized to compare the binding affinity of the PEGylated and native steroids (PanVera Glucocorticoid Receptor Competitor Assay). The assay is based on competitive inhibition and measures the ability of the test compound to compete with a fluorescently labeled ligand (Fluormone™ GS1) for binding to a purified preparation of the recombinant human glucocorticoid receptor.
In its free unbound form, the fluorescent ligand behaves as a small molecule with a high rotational velocity or “tumbling rate”, and correspondingly low ability to polarize fluorescence light (i.e. a low FP). When bound to receptor, the ligand essentially becomes part of a larger molecule, with a slower rotational velocity and a higher FP.
Standard competition assay procedures were employed. Briefly, serial dilutions of the test compound were incubated in triplicate wells of a black 96-well microplate together with the fluorescent ligand, and reactions were initiated by addition of purified recombinant receptor. Assays were incubated in the dark for 2-4 h, and then polarization values were read using the fluorescence polarization function of the Tecan Genios Pro microplate reader.

hGR = target: T2, hGR (Homo sapiens, UniProt P04150); test: Glucocorticoid receptor luciferase reporter assay in COS-7 cells; type: cell-based; settings: for EC50: ± standard error, 20 hours incubation, TA n = 1
T2 construct: expressed in transfected cells; host or cells: COS-7 cells
T2 sequence (P04150 1-777): T1 sequence (P04150 1-777)
Text: To quantitate the effect of PEGylation on the ability of the steroid to enter a cell and elicit a response, a glucocorticoid receptor reporter assay was employed. In this assay, treatment of cells with ligand leads to receptor-mediated expression of the firefly luciferase gene. The level of gene expression is quantitated by an enzymatic luciferase assay, and the amount of light produced is directly proportional to the expression level of the luciferase gene.
For these experiments, the Promega Dual Luciferase Reporter kit was employed. This involves a firefly luciferase reporter gene under the control of the Glucocorticoid Response Element (GRE-Luc), co-transfected into COS-7 cells with a gene encoding the hGR and a control vector containing a Renilla luciferase reporter gene under no promoter or enhancer elements (pRL-Null). The firefly luciferase gene is expressed only upon binding of a ligand-bound receptor to the GRE-Luc enhancer. […]
Cos-cells were plated in 96-well microplates and transfected with the relevant plasmids using standard procedures; all incubations and assays were performed in triplicate in these plates using medium containing DCCS, as described in section 8.3.1. […] Cells were then lysed, and the expression levels of firefly and Renilla luciferase were determined by sequential enzymatic assays provided by the Promega Dual Luciferase Reporter Assay kit. The resulting luminescence was detected using the Tecan Genios Pro Microplate reader, and data were analyzed using GraphPad Prism 4.0 software.
Readings obtained in the absence of steroid represent “basal” background levels of luciferase expression. All readings in the presence of steroid are expressed as a ratio compared with this, and termed “fold increase over basal.” Values obtained for firefly luciferase were normalized to those obtained for Renilla luciferase in the corresponding well in order to compensate for differences in transfection efficiency or cell number.

[2] = target: T3, human glucocorticoid receptor (hGR) (Homo sapiens, UniProt P04150); test: Steroid-induced nuclear translocation assay of hGR in CHO cells; type: cell-based
T3 construct: expressed in transfected cells; host or cells: Chinese Hamster Ovary (CHO) cells
T3 sequence (P04150 1-777): T1 sequence (P04150 1-777)
Protocol: To determine whether PEGylated steroids can enter cells, and to compare their potency with the parent steroid triamcinolone, cells expressing the human glucocorticoid receptor (hGR) were incubated with increasing concentrations of TA, PEG-3-TA and PEG-7-TA, and the subcellular location of the hGR determined using immunocytochemistry and fluorescence microscopy.
Chinese Hamster Ovary (CHO) cells were plated on glass coverslips in 24-well plates, and transfected with DNA encoding the hGR using 0.25 μg DNA per well. One day following transfection, cells were incubated with increasing concentrations, from 1 nM to 10 μM, of TA, PEG-3-TA or PEG-7-TA, overnight at 37° C.
Stock solutions of steroids were prepared at 2 mM (TA) or 1 mM (PEG-3-TA, PEG-7-TA) in ethanol. Each test compound was diluted to 10 μM into culture medium supplemented with dextran-coated charcoal treated serum (DCCS) (final 5% serum), and then further diluted to the final concentrations. […] Dilutions of steroid were calculated to ensure that cells were not exposed to ethanol concentrations greater than 1% (v/v). […]
Following treatment with test compounds, cells were fixed in 3.7% (v/v) formaldehyde/PBS and permeabilized with 1% (v/v) Triton-X-100 in blocking buffer. Subcellular localization of the transfected hGR was determined by immunocytochemistry using an anti-GR antibody and a FITC-conjugated secondary antibody. […]

[3] = in vivo; cited from earlier work
Mu-opiate = Mu-opiate (Homo sapiens, UniProt P35372); settings: read-out: IC50, Mu-opiate binding activity
Mu-opiate, sequence (P35372 whole entry): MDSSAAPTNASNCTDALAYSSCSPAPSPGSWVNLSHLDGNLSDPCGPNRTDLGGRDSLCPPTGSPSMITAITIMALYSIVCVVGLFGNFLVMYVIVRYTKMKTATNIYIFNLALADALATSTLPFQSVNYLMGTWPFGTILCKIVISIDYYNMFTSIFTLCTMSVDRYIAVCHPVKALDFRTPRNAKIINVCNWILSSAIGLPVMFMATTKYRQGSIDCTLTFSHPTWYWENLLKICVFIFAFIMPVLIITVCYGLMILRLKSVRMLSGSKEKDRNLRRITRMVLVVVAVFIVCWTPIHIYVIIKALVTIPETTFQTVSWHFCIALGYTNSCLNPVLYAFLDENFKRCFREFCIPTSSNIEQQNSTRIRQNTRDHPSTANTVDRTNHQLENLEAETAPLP

[4] = Solubility of tested compounds (Table 1)
μ-Opiate Receptors = μ-Opiate Receptors (Homo sapiens, UniProt P35372); test: biochemical; type: biochemical
μ-Opiate Receptors, sequence (P35372 whole entry): as above
Text: In the table above, for each compound, the bioactivity is provided as a measure of the relative bioactivity of each of the various PEG conjugates in comparison to parent drug. The EC50 is the concentration of agonist that provokes a response halfway between the baseline and maximum response in a standard dose-response curve.

[5] = In-vitro metabolism, incubation with liver microsomes
Protocol: The procedure calls for the preparation of a NADPH regenerating system (NRS) solution. […] After the solids were all dissolved, the solution was stored in an ice bath.
Male Sprague Dawley rat microsomes (0.5 mL at 20 mg/mL concentration; M00001 from In-vitro Technologies, Baltimore, Md.) were removed from the freezer and thawed in an ice bath. Forty μL of the liver microsomes were diluted to 100 μL with 60 μL of deionized water in a test vial. To the test vial, tris buffer, pH 7.4 (640 μL) and a test article stock (10 μL) were added to have 750 μL volume.
Each test vial and the NRS solution were separately placed in a 37° C. water bath for 5 minutes. The NRS solution (250 μL) was added into each test vial. The reaction timer was started at the addition of the NRS to the first test vial. Each sample (200 μL) was collected and then perchloric acid (20 μL) was added to terminate the reaction. The samples were collected at the following time points: 0-2, 20, 40 and 60 minutes. All of the terminated test vials were stored in an ice bath.
Acetonitrile (100 μL) was added into each test vial, which was then centrifuged at 3000×g for 5 minutes. Supernatant (230 μL) was withdrawn and then 10 μL of the test solution was assayed by an LC/MS method. The concentration of test article in each sample was measured and recorded at each time point.

[6] = Oral bioavailability: plasma concentration after oral gavage; type: in vivo, Sprague Dawley rats; settings: rats, PEGylated compounds normalized to 1 mg/kg dose
Protocol: Female Sprague Dawley® rats (150-200 g) were obtained from Harlan Labs. […] The animals were fasted overnight (day −1), but water was provided ad libitum.
On the morning of dosing (day 0), each rat was weighed and the cannulas flushed with heparin (1000 U/mL). With the aid of a feeding tube, the animals were then dosed orally (gavage) with aqueous formulations containing either the PEGylated or the free drug. The dose was determined on a mg/kg body weight basis. […] At specific time intervals (1, 2 and 4 hours), blood samples (approximately 1.0 mL) were removed through the cannula, placed in 1.5 mL centrifuge tubes containing 14 μL of heparin, mixed and centrifuged to separate the plasma. The plasma samples were frozen (<−70° C.) until assayed. The plasma samples were purified by a precipitation technique and the analyte extracted and assayed using a high performance liquid chromatography (LC) method with a mass selective detector (MSD). […] When appropriate, an internal standard was used in the analysis.

- Ki [1]: 45.5 ± 21.1 nM
- EC50 (hGR): 0.545 nM
- Concentration for complete translocation of hGR to the nucleus [2]: ≥ 10 nM
- hGR localization ([2]; 1 nM (lowest concentration), overnight): predominantly in the nucleus
SMILES: C[C@]12C=CC(=O)C=C1CC[C@H]1[C@@H]3C[C@@H](O)[C@](O)(C(=O)CO)[C@@]3(C)C[C@H](O)[C@@]12F [TA, triamcinolone]

SMILES: CC1(C)O[C@@H]2C[C@H]3[C@@H]4CCC5=CC(=O)C=C[C@]5(C)[C@@]4(F)[C@@H](O)C[C@]3(C)[C@]2(C(=O)CO)O1 [TAA, triamcinolone acetonide]
- Fold difference vs TAA (Ki, Binding assay) [1]: 1
- Ki [1]: 2.2 ± 0.5 nM
- Fold difference vs TAA (EC50, Luciferase assay) (hGR): 1
- EC50 (hGR): 0.062 ± 0.011 nM

SMILES: Nc1nc(F)nc2c1ncn2[C@@H]1O[C@H](CO)[C@@H](O)[C@@H]1O [fludarabine]
- Oral bioavailability [3]: about 70%

SMILES: C=CCN1CC[C@]23c4c5ccc(O)c4O[C@H]2C(OCCOCCOCCOC)CC[C@@]3(O)[C@H]1C5 (stereo partly drawn) [β-PEG3-Nal, β-6-CH3—(OCH2CH2)3—O-naloxol]
- IC50 (Mu-opiate): 31.7 nM
- Solubility [4]: soluble
- Bioactivity relative to the parent compound (μ-Opiate Receptors; from EC50 values): about 35%
- EC50 (μ-Opiate Receptors; μ-opiate receptors, in-vitro): 31.7 nM
- Substrate quality for cytochrome P450 isozymes in isolated rat liver microsomes [5]: poor substrate
- Percentage of Active Remaining After Incubation with Liver Microsomes (0 min): 100.0%
- Percentage of Active Remaining After Incubation with Liver Microsomes (20 min): 83.9%
- Percentage of Active Remaining After Incubation with Liver Microsomes (40 min): 75.2%
- Percentage of Active Remaining After Incubation with Liver Microsomes (60 min): 69.6%
- Mean Plasma Concentration ± SD, 1 hr ([6]; 1 hr): 0.05379 ± 0.00519 µg/mL
- Mean Plasma Concentration ± SD, 2 hr ([6]; 2 hr): 0.02247 ± 0.00878 µg/mL
